According to patent US20240116877A1, “KIT KINASE INHIBITORS AND METHODS OF USE THEREOF” (Deciphera Pharmaceuticals, LLC, priority 2021, published 2024):
Read-outs that look alike come from different tables or passages of the source.

Columns and labels:
[1] = target: c-KIT kinase (uKIT) (Homo sapiens (Human), UniProt P10721); experiment: Biochemical Assay for uKIT (coupled pyruvate kinase/lactate dehydrogenase assay); conditions: Inhibition of biochemical activity of uKIT kinase; 1 mM ATP
Method: Biochemical Assay for uKIT
Activity of c-KIT kinase (SEQ. ID NO. 1 or SEQ. ID NO. 2) was determined spectroscopically using a coupled pyruvate kinase/lactate dehydrogenase assay that continuously monitors the ATP hydrolysis-dependent oxidation of NADH (e.g., Schindler et al. Science (2000) 289: 1938-1942). Assays were conducted in 384-well plates (100 μL final volume) using 16 nM (Decode, SEQ ID No. 1) or 4.36 nM (Signal Chem, SEQ. ID No. 2), 0.7 mg/mL PE4Y substrate, 1.5 units pyruvate kinase, 2.1 units lactate dehydrogenase, 1 mM phosphoenol pyruvate, 0.28 mM NADH and 1 mM ATP in assay buffer (100 mM Tris, pH 7.5, 15 mM MgCl2, 0.5 mM DTT, 0.1% octyl-glucoside, 0.002% (w/v) BSA, and 0.002% Triton X-100). Inhibition of KIT was measured by adding serial diluted test compound (final assay concentration of 1% DMSO). A decrease in absorption at 340 nm was monitored continuously for 6 h at 30° C. on a multi-mode microplate reader (BioTek). The reaction rate was calculated using the 2-3 h time frame. The reaction rate at each concentration of compound was converted to percent inhibition using controls (i.e., reaction with no test compound and reaction with a known inhibitor) and IC50 values were calculated using software routines in Prism (GraphPad software).

[2] = system: Ba/F3 KIT mutant cells; experiment: Ba/F3 mutant KIT Cell Proliferation Assays (resazurin); assay type: cell-based; conditions: Mus musculus, BaF3
Method: Ba/F3 KIT Mutant Cell Line Transduction and Expansion
Several different KIT cDNA encoding various primary and secondary mutations were cloned into a pLV(Exp]-CMV>(cDNA):IRES:puro vector. These vectors were constructed and packaged by VectorBuilder.
Exponentially grown Ba/F3 cells (1×10^6 cells in 1 ml medium) were infected with 60 μl of viral suspension in a 6-well plate in the presence of mIL-3 (10 ng/ml) and polybrene (7.5 μg/ml) (Vector Builder) and incubated for 16 h. After 16 h, the cells were centrifuged, and viral supernatant was discarded. The cells were then re-suspended in fresh medium and allowed to recover for another day. After 72 h post infection, the cells were seeded with complete medium with mIL-3 and with 1 μg/ml puromycin added to medium for selection. After 48 h, cells without viral infection die, whereas successfully transduced cells were collected and changed to fresh medium with 5 ng/ml of IL-3. After a week or two with gradual withdrawal of mIL3 the cells that can continue to proliferate in the absence of mIL3 were exponentially expanded and were frozen down for banking.
Ba/F3 mutant KIT Cell Proliferation Assays
(§1) A serial dilution of test compound was dispensed into a 384-well black clear bottom plate (Corning, Corning, NY). Six hundred and twenty-five cells were added per well in 50 μL complete growth medium. Plates were incubated for 68 h at 37° C., 5% CO2, 95% humidity. At the end of the incubation period 10 μL of a 440 μM solution of resazurin (Sigma, St. Louis, MO) in PBS was added to each well and incubated for an additional 5 h at 37° C., 5% CO2, 95% humidity. Plates were read on a Synergy2 reader (Biotek, Winooski, VT) using an excitation of 540 nm and an emission of 600 nm. Data was analyzed using Prism software (Graphpad, San Diego, CA) to calculate IC50 values.

[3] = system: GIST 430 cells; experiment: GIST 430 Cell Proliferation Assay (resazurin); assay type: cell-based; conditions: Homo sapiens; GIST430 cell proliferation
Method: GIST 430 Cell Proliferation Assay
as §1, with “a 96-well” for “a 384-well”, “NY). Five thousand” for “NY). Six hundred and twenty-five”, “in 200” for “in 50”, “for 115” for “for 68”, “at 37 degrees Celsius,” for “at 37° C.,”, “period 40” for “period 10”

[4] = Ba/F3 KIT exon11del-V654A mutant cell proliferation, read-out: exon11del-V654A IC50
[5] = Ba/F3 KIT AYdup-V654A mutant cell proliferation, read-out: AYdup-V654A IC50
[6] = Ba/F3 KIT exon11del-Y823D mutant cell proliferation, read-out: exon11del-Y823D IC50

Chain of c-KIT kinase (uKIT) (P10721 other isoform, or with tags, fused parts or gaps): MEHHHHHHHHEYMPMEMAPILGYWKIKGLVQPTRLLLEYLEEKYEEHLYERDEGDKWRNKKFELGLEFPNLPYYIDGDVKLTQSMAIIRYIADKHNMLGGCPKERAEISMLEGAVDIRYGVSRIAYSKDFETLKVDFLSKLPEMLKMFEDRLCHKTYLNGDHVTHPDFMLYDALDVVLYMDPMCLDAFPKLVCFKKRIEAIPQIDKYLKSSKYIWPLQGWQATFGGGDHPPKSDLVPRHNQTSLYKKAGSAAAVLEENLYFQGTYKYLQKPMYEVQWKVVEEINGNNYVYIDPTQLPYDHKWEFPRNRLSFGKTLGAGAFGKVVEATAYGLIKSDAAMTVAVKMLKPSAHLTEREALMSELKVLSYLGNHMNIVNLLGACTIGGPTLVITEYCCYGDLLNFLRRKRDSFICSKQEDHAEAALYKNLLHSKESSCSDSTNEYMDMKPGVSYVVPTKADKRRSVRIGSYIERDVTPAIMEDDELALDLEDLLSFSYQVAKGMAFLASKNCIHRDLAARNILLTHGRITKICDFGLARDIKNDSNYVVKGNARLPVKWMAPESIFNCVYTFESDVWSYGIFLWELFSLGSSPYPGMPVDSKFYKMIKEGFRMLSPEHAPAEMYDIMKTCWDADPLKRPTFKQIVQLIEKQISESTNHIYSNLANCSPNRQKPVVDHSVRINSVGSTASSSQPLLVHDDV

| Compound | IC50 [1] | IC50 [2, 4] | IC50 [2, 5] | IC50 [2, 6] | IC50 ([2]; Ba/F3 KIT AYdup mutant cell proliferation, read-out: AYdup IC50) | IC50 ([2]; Ba/F3 KIT AYdup-D816G mutant cell proliferation, read-out: AYdup-D816G IC50) | IC50 [3] |
| --- | --- | --- | --- | --- | --- | --- | --- |
| CN(C)CCOc1cc(F)c2c(Nc3ccc(NC(=O)NCCC(C)(C)C#N)cc3)ncnc2c1 [Example 80] | > 1000 nM | > 1000 nM |  |  |  |  |  |
| COCCOc1cc(F)c2c(Nc3ccc(NC(=O)CCC(=O)NC(C)C)cc3)ncnc2c1 [Example 87] | 10 to 100 nM | 100 to 1000 nM | 100 to 1000 nM |  |  |  |  |
| COCCOc1cc(F)c2c(Nc3ccc(NC(=O)C(=O)NC(C)(C)C)cc3)ncnc2c1 [Example 134] | > 1000 nM | 100 to 1000 nM | > 1000 nM | > 1000 nM |  |  |  |
| CC(C)(F)CCNC(=O)Nc1ccc(Nc2ncnc3cc(O[C@H]4CCOC4)cc(F)c23)cc1 [Example 160] |  | 10 to 100 nM | 10 to 100 nM | 10 to 100 nM | ≤ 10 nM | 10 to 100 nM | 10 to 100 nM |
| CC(C)(F)CCNC(=O)Nc1ccc(Nc2ncnc3cc(O[C@@H]4CCOC4)cc(F)c23)cc1 [Example 180] |  | > 1000 nM | > 1000 nM | 100 to 1000 nM |  |  | > 1000 nM |
| COCCCc1ccc2c(Nc3ccc(NC(=O)CC(=O)NCC(C)(C)C)cc3)cnnc2c1 [Example 193] | 10 to 100 nM |  |  |  |  |  |  |
| COCCOc1cc(F)c2c(Nc3ccc(NC(=O)CC(=O)N4[C@@H](C)COC[C@@H]4C)cc3)ncnc2c1 [Example 199] | 100 to 1000 nM | > 1000 nM | > 1000 nM | > 1000 nM |  |  |  |
| COCCOc1ccc2ncnc(Nc3ccc(NC(=O)NCCC(C)(C)F)cc3)c2c1F [Example 200] | 100 to 1000 nM | > 1000 nM | > 1000 nM | > 1000 nM |  |  |  |
| COCCOc1ccc2ncnc(Nc3ccc(NC(=O)CC(=O)NC4CCCC4)cc3)c2c1F [Example 201] | 100 to 1000 nM | > 1000 nM | 100 to 1000 nM | > 1000 nM |  |  |  |
| COc1cc(F)c2c(Nc3ccc(NC(=O)NCCC(C)(C)OC)cc3)ncnc2c1 [Example 202] | 10 to 100 nM | 10 to 100 nM | 10 to 100 nM | 10 to 100 nM |  |  |  |
| COc1cc(F)c2c(Nc3ccc(NC(=O)NCCC(C)(C)F)cc3)ncnc2c1 [Example 203] | ≤ 10 nM | 10 to 100 nM | 10 to 100 nM | 10 to 100 nM |  |  |  |
| COCCOc1cc(OC)c2c(Nc3ccc(NC(=O)CC(=O)NCC(C)(C)C)cc3)ncnc2c1 [Example 204] | 10 to 100 nM | 100 to 1000 nM | 10 to 100 nM | 10 to 100 nM |  |  |  |
| COCCOc1ccc2c(Nc3ccc(NC(=O)CC(=O)NCC(C)(C)C)cn3)ccnc2c1 [Example 205] | > 1000 nM | > 1000 nM | > 1000 nM | > 1000 nM |  |  |  |
| COc1cc2ncnc(Nc3ccc(NC(=O)CC(=O)NCC(C)(C)C)cc3)c2cc1OCCCN1CCOCC1 [Example 206] | 100 to 1000 nM | > 1000 nM | 100 to 1000 nM | > 1000 nM |  |  |  |
| COCCOc1ccc2ncnc(Nc3ccc(NC(=O)CC(=O)NC4CCC4)cc3)c2c1F [Example 207] | 100 to 1000 nM | > 1000 nM | 100 to 1000 nM | > 1000 nM |  |  |  |
| COCCOc1ccc2ncnc(Nc3ccc(NC(=O)CC(=O)NC(C)(C)C)cc3)c2c1F [Example 208] | > 1000 nM | > 1000 nM | > 1000 nM | > 1000 nM |  |  |  |
| COc1cc2ncnc(Nc3ccc(NC(=O)NCCC(C)(C)F)cc3)c2cc1OC [Example 209] | 10 to 100 nM | 100 to 1000 nM | > 1000 nM | > 1000 nM |  |  |  |
| COc1cc2ncnc(Nc3ccc(NC(=O)NCCC(C)(C)OC)cc3)c2cc1OC [Example 210] | 10 to 100 nM | > 1000 nM | > 1000 nM | > 1000 nM |  |  |  |
| COc1cc(F)c2c(Nc3ccc(NC(=O)CC(=O)NCC(C)(C)C)cc3)ncnc2c1 [Example 211] | 10 to 100 nM | 10 to 100 nM | 10 to 100 nM | 10 to 100 nM |  |  |  |

| Compound | IC50 [1] | IC50 [2, 4] | IC50 [2, 5] | IC50 [2, 6] | IC50 ([2]; Ba/F3 KIT AYdup mutant cell proliferation, read-out: AYdup IC50) | IC50 ([2]; Ba/F3 KIT AYdup-D816G mutant cell proliferation, read-out: AYdup-D816G IC50) | IC50 [3] |
| --- | --- | --- | --- | --- | --- | --- | --- |
| COCCOc1cc(F)c2c(Nc3ccc(NC(=O)CC(=O)N4[C@H](C)COC[C@@H]4C)cc3)ncnc2c1 [Example 212] |  | > 1000 nM | 100 to 1000 nM | > 1000 nM |  |  |  |
| COc1cc2ncnc(Nc3ccc(NC(=O)CC(=O)NCC(C)(C)C)cc3)c2cc1OC [Example 213] | 10 to 100 nM | > 1000 nM | 100 to 1000 nM | > 1000 nM |  |  |  |
| COCCOc1cc(F)c2c(Nc3ccc(NC(=O)CC(=O)N4CCC[C@@H]4C(C)C)cc3)ncnc2c1 [Example 214] | 10 to 100 nM | 10 to 100 nM | 10 to 100 nM | 10 to 100 nM |  |  |  |
| COCCOc1ccc2ncnc(Nc3ccc(NC(=O)NCCC(C)(C)OC)cc3)c2c1F [Example 215] | 10 to 100 nM | 100 to 1000 nM | 100 to 1000 nM | 100 to 1000 nM |  |  |  |
| COCCOc1ccc2ncnc(Nc3ccc(NC(=O)NCCC(C)(C)C#N)cc3)c2c1F [Example 216] | 10 to 100 nM | 100 to 1000 nM | 100 to 1000 nM | 100 to 1000 nM |  |  |  |
| COCCOc1ccc2ncnc(Nc3ccc(NC(=O)CC(=O)NCC(C)(C)C)cc3)c2c1F [Example 217] | 100 to 1000 nM | > 1000 nM | 100 to 1000 nM | > 1000 nM |  |  |  |
| COc1cc2ncnc(Nc3ccc(NC(=O)NCCC(C)(C)C#N)cc3)c2cc1OC [Example 218] |  | > 1000 nM | 100 to 1000 nM | > 1000 nM |  |  |  |
| COc1cc(F)c2c(Nc3ccc(NC(=O)NCCC(C)(C)C#N)cc3)ncnc2c1 [Example 219] | 10 to 100 nM | 10 to 100 nM | 10 to 100 nM | 10 to 100 nM |  |  |  |
| COCCOc1ccc2c(Nc3ccc(NC(=O)NCCC(C)(C)F)cc3)ncnc2c1 [Example 220] | ≤ 10 nM | 100 to 1000 nM | 100 to 1000 nM | 10 to 100 nM |  |  |  |
| COCCOc1ccc2c(Nc3ccc(NC(=O)CC(=O)NCC(C)(C)C)cc3)ncnc2c1 [Example 221] | 10 to 100 nM | 100 to 1000 nM | 10 to 100 nM | 100 to 1000 nM |  |  |  |
| COCCOc1cc2ncnc(Nc3ccc(NC(=O)NCCC(C)(C)F)cc3)c2cc1OCCOC [Example 222] | 10 to 100 nM |  |  |  |  |  |  |
| COCCOc1ccc2c(Nc3ccc(NC(=O)CC(=O)NCC(C)(C)C)cc3)ccnc2c1 [Example 223] | 100 to 1000 nM |  |  |  |  |  |  |
| CC(C)(F)CCNC(=O)Nc1ccc(Nc2ncnc3cc(OCC(=O)O)cc(F)c23)cc1 [Example 224] | 10 to 100 nM |  |  |  |  |  |  |
| COCCOc1ccc2c(Nc3ccc(NC(=O)NCCC(C)(C)OC)cc3)ncnc2c1 [Example 225] | ≤ 10 nM |  |  |  |  |  |  |
| COCCOc1ccc2c(Nc3ccc(NC(=O)NCCC(C)(C)C#N)cn3)ncnc2c1 [Example 226] | 100 to 1000 nM |  |  |  |  |  |  |
| COCCOc1ccc2c(Nc3ccc(NC(=O)NCCC(C)(C)F)cn3)ncnc2c1 [Example 227] | 100 to 1000 nM |  |  |  |  |  |  |
| COCCOc1ccc2c(Nc3ccc(NC(=O)NCCC(C)(C)OC)cn3)ncnc2c1 [Example 228] | 10 to 100 nM |  |  |  |  |  |  |
| COCCOc1ccc2c(Nc3ccc(NC(=O)CC(=O)NCC(C)(C)C)cn3)ncnc2c1 [Example 229] | 100 to 1000 nM |  |  |  |  |  |  |
